Results as given in patent US10259777B2, “(E)-3-(3,4-dihydroxyphenyl)-N-(prop-2-yn-1-yl)acrylamide for treatment of neurodegenerative diseases” (THE UNIVERSITY OF HONG KONG, priority 2015, dated 2019).

Assays:
[1] = test system: PC12 cells; assay: 6-OHDA-induced nitric oxide production, DAF-FM Diacetate staining; assay type: cell-based, rat; conditions: 6-OHDA with PACA 5, 10, 20 and 50 μM
Experimental: After the treatment with 6-OHDA alone or in combination with PACA at different concentrations, PC12 cells were stained with a fluorescent probe dihydroethidium (DHE) for the production of superoxide anion (A & B) and another fluorescent probe DAF-FM Diacetate for the production of nitric oxide ([…]), respectively. (A) Representative images of DHE-stained cells. 6-OHDA, 200 μM; PACA, 50 (B) PACA inhibited 6-OHDA-induced formation of superoxide ions. PC12 cells were treated with 6-OHDA alone or in combination with PACA for 6 h and subsequently stained with a probe DHE. The images were captured under a fluorescence microscope. The fluorescence was determined by ImageJ software. (C) Representative images of DAF-FM DA-stained cells. 6-OHDA, 200 μM; PACA, 50 μM. (D) PACA inhibited 6-OHDA-induced NO production. PC12 cells were treated with 6-OHDA alone or in combination with PACA for 6 h and subsequently stained with a probe DAF-FM DA. The images were captured under a fluorescence microscope. The fluorescence was determined by ImageJ software.
PC12 cells were treated with 6-OHDA alone or in combination with PACA at the concentrations of 5, 10, 20 and 50 μM. At the end of treatment, PC12 cells were then stained with a fluorescent probe dihydroethidium (DHE) for the production of superoxide anion and another fluorescent probe DAF-FM Diacetate for the production of nitric oxide, respectively.

[2] = Pharmacokinetic analysis of PACA after oral administration, plasma and brain, LC-MS/MS MRM; assay type: in vivo, Sprague Dawley rats
Experimental: (A) HPLC-MS/MS detection of PACA. (B) Determination of PACA in mouse plasma. (C) Determination of PACA in mouse brain tissues. PACA (30 mg/kg) was orally administered into mice. Blood samples and brain tissues were collected after different times (0, 0.5, 1, 2, 3, 6, 9, 12 or 24 h). PACA was determined by liquid chromatography-mass spectrometric multiple reaction monitoring-based strategy.
Nine male Sprague Dawley rats with a body weight of 240-280 g were purchased from Laboratory Animal Unit, HKU. The animals were housed in a qualified facility run on a 12-hour light and dark cycle. The animals were allowed unrestricted access to food and water. The protocol for the animal studies was approved by Li Ka Shing Faculty of Medicine, University of Hong Kong. The rats were administered with PACA (30 mg/kg) in 50% propanediol in saline by oral gavage whereas the control animal received vehicle only. The rats were anesthetized by isoflurane at the time points of 0, 0.5, 1, 2, 3, 6, 9, 12 or 24 h. Blood samples were collected by cardiac puncture using pre-heparinized syringes and immediately transferred into the tubes containing acetonitrile for preventing esterase metabolism. Blood samples were centrifuged at 5700 rpm for 10 minutes at 4° C. to recover plasma. Brain tissues were excised after the removal of blood vessels, blotted dry with clean paper towels, and weighed. All samples were stored at −80° C. before use. HPLC separation was performed on a Phenomenex Synergi hydro-RP C18 reversed phase column (150 mm×4.6 mm, 4 m) (Torrance, Calif., USA) under the control of Agilent HLPC 1100 system (Santa Clara, Calif., USA). Gradient was set using mobile phase: A, water with 0.05% (v/v) formic acid, B, acetonitrile with 0.05% (v/v) formic acid as follows: 0-2.5 min, 40-50% B; 2.5-5.5 min, 50-80% B; 5.5-11.5 min, 80% B; 11.5-12 min, 80-40% B, 12-15 min, 40% B. Flow rate was constant at 0.7 mL/min. The column temperature was maintained at 30° C. Sample volume for injection was 20 μL. […] Multiple-reaction monitoring (MRM) detection was used for the quantitation of all analytes.

[3] = test system: β3-tubulin, MAP2 and GAP-43; assay: Western blot of neuronal biomarkers in PC12 cells; assay type: cell-based, rat; conditions: PACA and NGF, alone or in combination
Experimental: The neuritogenic potential of PACA was verified by the induction of the main neuronal biomarkers (i.g., β3-tubulin, MAP-2 and GAP43). (A) Representative images for the potentiation of NGF-induced neurite outgrowth in PC12 cells by PACA. PC12 cells were treated with NGF (2 ng/ml) and PACA, alone or in combination. The cells were stained with neurite outgrowth staining kit and imaged under a fluorescence microscope. (B) Quantification of neurite outgrowth in Panel A. Following the staining of neurites, the cells bearing neurites longer than 20 μm were counted under a fluorescence microscope. **, p<0.01 (sample vs NGF alone). (C) Western blot analysis of neuronal biomarkers. The cells were treated with NGF and PACA, alone or in combination, whereas the control cells were treated with vehicle for 72 hours. The cellular proteins were extracted and detected by Western blot analysis for the expression of neuron marker. GAPDH was detected as the control of protein loading.
The neuritogenic activity of PACA was evaluated in rat dopaminergic PC12 cells. […] The cells were stained by a neurite outgrowth kit, and subsequently analyzed for neurites (>20 μm) under a fluorescence microscope. […] Following the treatment with PACA and NGF, alone or in combination, PC12 cells were analyzed by Western blotting for the expression of neuronal biomarkers (i.g., β3-tubulin, MAP2 and GAP-43).

[4] = test system: PC12 cells; assay: Mitochondrial membrane integrity against 6-OHDA, JC-1 probe; assay type: cell-based, rat; conditions: 6-OHDA with PACA 5, 10, 20 and 50 μM
Experimental: PC12 cells were treated with 6-OHDA alone or in combination with PACA for 6 hours and subsequently stained with JC-1. The images were captured under a fluorescence microscope.
To investigate the neuroprotective mechanisms of PACA, PC12 cells were treated with 6-OHDA alone or in combination with PACA at the concentrations of 5, 10, 20 and 50 μM. At the end of treatment, the protection of PACA on the mitochondrial membrane integrity was examined by using a cell permeable fluorescent probe 5,5′,6,6′-tetrachloro-1,1′,3,3′-tetraethyl-benzimidazol-carbocyanine iodide (JC-1). 6-OHDA deadly disrupted the mitochondrial membrane integrity as indicated by the leakage of JC-1 into the cytosol.

time to peak concentration in blood ([2]; oral administration, 30 mg/kg): ≤ 60 min
time to peak concentration in brain tissues ([2]; oral administration, 30 mg/kg): ≤ 60 min
Compound: C#CCNC(=O)/C=C/c1ccc(O)c(O)c1 [PACA, (E)-3-(3,4-dihydroxyphenyl)-N-(prop-2-yn-1-yl)acrylamide]
6-OHDA-induced formation of NO [1]: significantly attenuated
bioavailability in plasma and brain tissues ([2]; after oral administration): rapidly bioavailable in plasma and brain tissues
induction of neuronal markers β3-tubulin, MAP2 and GAP-43 [3]: enhanced the neuritogenic activity of NGF in a concentration-dependent manner
mitochondrial membrane integrity against 6-OHDA [4]: maintained the mitochondrial membrane integrity in a concentration-dependent manner
